Results reported in patent US20240367098A1, “CARBON DIOXIDE ABSORBENT, METHOD FOR RECOVERING CARBON DIOXIDE, AND APPARATUS FOR SEPARATING AND RECOVERING CARBON DIOXIDE” (MITSUBISHI GAS CHEMICAL COMPANY, INC., priority 2021, published 2024).

How the values were obtained:
Type in all cases: physicochemical
[1] = Acid dissociation constant (pKa) of amine compound (acid-base titration); details: 25±2° C., in purified water
Description: The acid dissociation constant of the amine compound was determined by the following method. • (1) Dissolving 0.2 g of the amine compound in 30 mL of the purified water. • (2) Calculating the acid dissociation constant (pKa) by titrating the solution obtained in the above (1) with the 0.1 N perchloric acid-acetic acid solution using the automatic potentiometric titrator (AT-610 produced by Kyoto Electronics Manufacturing Co., Ltd.).
Still, let the temperature at the time of measurement be 25±2° C.

[2] = Maximum carbon dioxide (CO2) release temperature of amine compound (DSC after CO2 absorption from air); details: amine compound stood 24 hours in air at 23° C., 50% RH; DSC 23 to 250° C., 10° C./minute, nitrogen
Description: A carbon dioxide concentration meter and a petri dish were placed inside an openable desiccator (Internal Dimension: 370 mm×260 mm×272 mm). […] An initial concentration of carbon dioxide was adjusted to about 400 ppm. Then, the amine compound was removed from the desiccator to obtain the amine compound with carbon dioxide absorbed. The DSC measurement was performed on the amine compound with carbon dioxide absorbed as follows, to measure the maximum carbon dioxide release temperature of the amine compound. First, the differential scanning calorimetry was performed on the amine compound using the differential thermogravimetric analyzer (Product Name: DTG-60 produced by Shimadzu Corporation) under the conditions of 23 to 250° C. of a measurement temperature range, 10° C./minute of the heating rate, and the nitrogen atmosphere. From the DSC curve obtained thereby, the temperature at which the endothermic amount associated with the desorption of carbon dioxide reached the maximum was calculated, and the temperature thereof was used as the maximum carbon dioxide release temperature of the amine compound.

[3] = Maximum endothermic temperature of amine compound (DSC); details: DSC 23 to 350° C., 10° C./minute, nitrogen; volatilization of the amine compound
Description: DSC measurements were performed on the amine compounds to measure the maximum endothermic temperature of the amine compounds as follows. First, a differential scanning calorimetry was performed on the amine compounds using a differential thermogravimetric analyzer (Product Name: DTG-60 produced by Shimadzu Corporation) under conditions of 23 to 350° C. of a measurement temperature range, 10° C./minute of a heating rate, and a nitrogen atmosphere. From the DSC curve obtained thereby, the temperature at which the endothermic amount associated with the volatilization of the amine compound reached the maximum was calculated, and the temperature thereof was used as the maximum endothermic temperature of the amine compound.

[4] = Amine value of amine compound (JIS K7237-1995 titration); details: 0.1 N perchloric acid-acetic acid titration
Description: The amine value was measured by the following measurement method in accordance with JIS K7237-1995. • (1) Dissolving 0.1 g of the amine compound in 20 mL of the acetic acid. • (2) Calculating the amine value by titrating the solution obtained in the above (1) with the 0.1 N perchloric acid-acetic acid solution using the automatic potentiometric titrator (AT-610 produced by Kyoto Electronics Manufacturing Co., Ltd.).

| pKa [1] | Maximum CO2 Release Temperature [2] | Maximum Endothermic Temperature [3] | Amine Value [4] | SMILES |
| --- | --- | --- | --- | --- |
| 10.3 | – | – | – | NCCNCCNCCN [TETA, triethylenetetramine] |
| 10.1 | 81.9 °C | 118.4 °C | 1154 mgKOH/g | NCCN1CCNCC1 [AEP, 2-aminoethylpiperazine] |
| 9.5 | – | – | – | NCCCNCC1CCCC(CNCCCN)C1 (stereo not shown) [1,3-BAC-BisAP] |
| 9.8 | 102.3 °C | 298.2 °C | 890 mgKOH/g | NCCCN(CCCN)CC1CCCC(CN(CCCN)CCCN)C1 (stereo not shown) [1,3-BAC-tetraAP] |
